For orientation: Ki means the dissociation constant of the complex between target and ligand, obtained from inhibition or displacement. The low end stands for a stronger hold on the target, the high end for a looser hold on the target.

In test [1] the target is T1, Complement C1s subcomponent (Homo sapiens, UniProt P09871).
T1 sequence (P09871 whole entry): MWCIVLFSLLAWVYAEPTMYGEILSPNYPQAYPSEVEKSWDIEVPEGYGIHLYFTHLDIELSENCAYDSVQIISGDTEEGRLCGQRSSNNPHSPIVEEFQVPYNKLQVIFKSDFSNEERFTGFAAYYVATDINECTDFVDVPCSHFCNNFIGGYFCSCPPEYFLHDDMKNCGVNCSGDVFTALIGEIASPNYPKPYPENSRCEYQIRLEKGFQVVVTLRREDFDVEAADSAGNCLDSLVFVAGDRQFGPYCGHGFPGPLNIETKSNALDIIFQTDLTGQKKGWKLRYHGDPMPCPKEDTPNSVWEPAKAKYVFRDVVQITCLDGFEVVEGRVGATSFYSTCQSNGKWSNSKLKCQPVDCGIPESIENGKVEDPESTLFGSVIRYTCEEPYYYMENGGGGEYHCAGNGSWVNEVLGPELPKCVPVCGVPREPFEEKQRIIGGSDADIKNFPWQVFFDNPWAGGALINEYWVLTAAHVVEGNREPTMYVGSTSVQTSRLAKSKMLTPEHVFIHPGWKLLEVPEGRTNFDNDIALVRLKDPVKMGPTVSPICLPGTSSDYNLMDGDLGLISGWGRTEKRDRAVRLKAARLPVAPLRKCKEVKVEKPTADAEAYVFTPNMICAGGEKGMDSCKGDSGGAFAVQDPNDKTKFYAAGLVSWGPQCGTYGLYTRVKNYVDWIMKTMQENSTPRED
The experiment in a line: In vitro binding affinity towards human Complement C1s subcomponent.

The target in test [2] is Coagulation factor X (Homo sapiens, UniProt P00742). The experiment in a line: In vitro binding affinity towards Coagulation factor X was determined.
Test [3] in a line: In vitro binding affinity towards human Complement C1r subcomponent.
Test [4] has as its target Plasminogen (Rattus norvegicus, UniProt Q01177). The experiment in a line: In vitro binding affinity towards plasmin was determined.
The target of test [5] is Prothrombin (Homo sapiens, UniProt P00734). The experiment in a line: In vitro binding affinity towards thrombin was determined.
Test [6] addresses Serine protease 1 (Homo sapiens, UniProt P07477). The experiment in a line: In vitro binding affinity towards trypsin was determined.

Coagulation factor X, sequence (P00742 41-179 limits assumed): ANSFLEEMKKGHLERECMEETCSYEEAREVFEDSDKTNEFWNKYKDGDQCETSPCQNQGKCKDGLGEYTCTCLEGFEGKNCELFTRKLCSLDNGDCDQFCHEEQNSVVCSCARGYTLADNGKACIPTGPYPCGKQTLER
Coagulation factor X, sequence (P00742 235-488 limits assumed): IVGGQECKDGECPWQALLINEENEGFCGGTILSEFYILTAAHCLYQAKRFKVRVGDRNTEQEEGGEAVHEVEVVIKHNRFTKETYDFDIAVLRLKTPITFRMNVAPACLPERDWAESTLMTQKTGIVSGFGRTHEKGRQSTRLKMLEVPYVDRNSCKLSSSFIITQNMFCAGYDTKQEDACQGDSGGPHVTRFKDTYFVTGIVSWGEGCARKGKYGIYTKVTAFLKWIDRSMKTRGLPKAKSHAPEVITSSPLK
Serine protease 1, sequence (P07477 whole entry): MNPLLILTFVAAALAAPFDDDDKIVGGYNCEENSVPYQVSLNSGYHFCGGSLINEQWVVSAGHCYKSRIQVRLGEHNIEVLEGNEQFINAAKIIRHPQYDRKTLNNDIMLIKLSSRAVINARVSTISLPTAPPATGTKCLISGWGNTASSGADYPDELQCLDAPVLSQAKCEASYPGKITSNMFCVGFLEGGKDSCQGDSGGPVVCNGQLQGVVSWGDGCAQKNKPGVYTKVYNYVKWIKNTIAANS
Plasminogen, sequence (Q01177 97-581 limits assumed): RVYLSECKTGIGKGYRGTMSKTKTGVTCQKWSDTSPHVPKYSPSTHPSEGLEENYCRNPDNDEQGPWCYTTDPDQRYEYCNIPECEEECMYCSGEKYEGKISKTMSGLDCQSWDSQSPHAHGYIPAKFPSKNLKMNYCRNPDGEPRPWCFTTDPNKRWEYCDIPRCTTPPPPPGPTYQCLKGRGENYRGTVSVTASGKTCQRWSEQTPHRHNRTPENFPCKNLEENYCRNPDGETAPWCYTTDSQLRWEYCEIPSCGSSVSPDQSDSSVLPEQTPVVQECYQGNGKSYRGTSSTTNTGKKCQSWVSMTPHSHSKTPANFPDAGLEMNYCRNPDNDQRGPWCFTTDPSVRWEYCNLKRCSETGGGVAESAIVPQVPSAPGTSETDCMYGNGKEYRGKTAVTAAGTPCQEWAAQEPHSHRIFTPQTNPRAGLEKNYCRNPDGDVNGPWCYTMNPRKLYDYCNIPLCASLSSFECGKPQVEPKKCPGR
Plasminogen, sequence (Q01177 582-812 limits assumed): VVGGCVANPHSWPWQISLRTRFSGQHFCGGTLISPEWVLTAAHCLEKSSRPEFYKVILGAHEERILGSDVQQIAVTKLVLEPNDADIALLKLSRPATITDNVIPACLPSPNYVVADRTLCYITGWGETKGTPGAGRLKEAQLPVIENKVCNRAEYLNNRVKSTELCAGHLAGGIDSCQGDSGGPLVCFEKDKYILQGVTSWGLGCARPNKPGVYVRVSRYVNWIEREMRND

Compound `CSc1sc(C(=N)N)cc1-c1nc(-c2cnn(-c3ccccc3)c2OCCC(C)C)cs1` registered a Ki in test [1] of 1500 nM.

In turn, `CSc1sc(C(=N)N)cc1-c1nc(-c2cnn(C)c2)cs1` had an inhibition constant (Ki) in test [1] of 460 nM. Still for that read-out and setting: the value for `CSc1sc(C(=N)N)cc1-c1nc(-c2cnn(-c3ccccc3)c2OCC2CCC2)cs1` was 530 nM; that for `N=C(N)c1cc(-c2nc(-c3ccccc3)cs2)c(C(F)(F)F)s1` was 12500 nM. Same read-out and setting: the value for `N=C(N)c1cc(-c2nc(-c3ccccc3)cs2)c(SCc2ccccc2)s1` was greater than 20000 nM; that for `CCSc1sc(C(=N)N)cc1-c1nc(-c2ccccc2)cs1` was greater than 20000 nM. Still for that read-out and setting: the value for `CS(=O)(=O)c1sc(C(=N)N)cc1-c1nc(-c2ccccc2)cs1` was greater than 28000 nM. In test [1], `Cc1sc(C(=N)N)cc1-c1nc(-c2ccccc2)cs1` gave a Ki of 6000 nM. Still for that read-out and setting: the value for `CCCc1nn(C)cc1-c1csc(-c2cc(C(=N)N)sc2SC)n1` was 190 nM. On the same count and under the same terms, the value for `CSc1sc(C(=N)N)cc1-c1nc(-c2ccccc2)cs1` was 560 nM; that for `COc1ccccc1-c1csc(-c2cc(C(=N)N)sc2SC)n1` was 850 nM; that for `CSc1sc(C(=N)N)cc1-c1nc(C2CCCCC2)cs1` was 4700 nM. Same read-out and setting: the value for `CSc1sc(C(=N)N)cc1-c1nc(-c2ccc(Cl)cc2Cl)cs1` was 3000 nM.

Take `CSc1sc(C(=N)N)cc1-c1nc(-c2cccnc2Cl)cs1`: affinity in test [1] was put at a Ki of 1020 nM. This Ki lies about 2.9-fold lower than the previous one. On to `COc1ccc(-c2csc(-c3cc(C(=N)N)sc3SC)n2)cc1`, for which the Ki in test [1] was 900 nM. In test [1], `CSc1sc(C(=N)N)cc1-c1nc(-c2ccc(Cl)cc2)cs1` showed a Ki of 436 nM. As for `COc1ccc(-c2csc(-c3cc(C(=N)N)sc3SC)n2)c(OC)c1`, in test [1], the inhibition constant Ki was 640 nM. Compound `CSc1sc(C(=N)N)cc1-c1nc(-c2cccc(C)c2)cs1` came in with a Ki in test [1] of 960 nM.

`CSc1sc(C(=N)N)cc1-c1nc(-c2cnccc2Cl)cs1` returned an inhibition constant Ki in test [1] of 870 nM. For the compound `CSc1sc(C(=N)N)cc1-c1nc(COc2ccccc2)cs1`, the inhibitory constant (Ki) in test [1] amounted to 520 nM.

For the compound `CSc1sc(C(=N)N)cc1-c1nc(-c2csc3ccccc23)cs1`, in test [1], the Ki was found to be 450 nM. Regarding `CSc1sc(C(=N)N)cc1-c1nc(-c2ccccc2C)cs1`, in test [1], affinity was put at a Ki of 850 nM. This Ki lies about 1.9-fold higher than the previous one.

On to `CSc1sc(C(=N)N)cc1-c1nc(-c2ccc([N+](=O)[O-])cc2)cs1`, for which, in test [1], affinity was put at a Ki of 1000 nM. The Ki values of the last two compounds are within 1.5-fold of each other. The compound `COc1cccc(-c2csc(-c3cc(C(=N)N)sc3SC)n2)c1` had a Ki in test [1] of 470 nM. The same measure, in the same setting: the value for `CSc1sc(C(=N)N)cc1-c1nc(Cc2ccccc2)cs1` was 1060 nM; that for `CSc1sc(C(=N)N)cc1-c1nc(-c2ccc3ccccc3c2)cs1` was 490 nM; that for `CSc1sc(C(=N)N)cc1-c1nc(-c2ccc(C)cc2)cs1` was 420 nM. Still for that read-out and setting: the value for `CSc1sc(C(=N)N)cc1-c1nc(-c2cccs2)cs1` was 700 nM. Take `CCCc1c(-c2csc(-c3cc(C(=N)N)sc3SC)n2)cnn1-c1ccccn1`: the inhibitory constant (Ki) in test [2] was 5 µM; in test [3], greater than 50 µM; in test [1], 70 nM; in test [4] it was 5 µM; in test [5] it was greater than 50 µM; in test [6], 180 nM. As to `CCCc1c(-c2csc(-c3cc(C(=N)N)sc3SC)n2)cnn1C`, the Ki in test [1] is 330 nM. On the same count and under the same terms, the value for `CCCc1c(-c2csc(-c3cc(C(=N)N)sc3SC)n2)cnn1-c1ccccc1` was 60 nM; that for `CCOc1c(-c2csc(-c3cc(C(=N)N)sc3SC)n2)cnn1-c1ccccc1` was 90 nM.

For `N=C(N)c1cc(-c2nc(-c3ccccc3)cs2)cs1`, the inhibition constant Ki in test [1] is greater than 20000 nM. Still for that read-out and setting: the value for `COc1sc(C(=N)N)cc1-c1nc(-c2ccccc2)cs1` was 14400 nM; that for `CSc1sc(C(=N)N)cc1-c1ncc(-c2ccccc2)s1` was 3250 nM; that for `CSc1sc(C(=N)N)cc1-c1nc(-c2cnn(-c3ccccc3)c2)cs1` was 150 nM. The same measure, in the same setting: the value for `CSc1sc(C(=N)N)cc1-c1nc(-c2ccc(Cl)c([N+](=O)[O-])c2)cs1` was 860 nM. Still for that read-out and setting: the value for `CSc1sc(C(=N)N)cc1-c1nc(-c2ccc(-c3ccccc3)cc2)cs1` was 15400 nM; that for `CCc1sc(C(=N)N)cc1-c1nc(-c2ccccc2)cs1` was 3000 nM.

The values are drawn from ChEMBL document CHEMBL1149210, “A novel series of potent and selective small molecule inhibitors of the complement component C1s” (Bioorg Med Chem Lett, 2004).
